Data reported in DBAASP.
≈ marks a conversion by molar mass, not a printed value.

Columns and labels:
Assay in all cases: ≥ marks a high value that may be exact or a test limit, other limits are often not marked, values filed in µg/mL are converted to µM
Escherichia coli U16318 = system: Escherichia coli U16318
[1] = system: Cryptococcus neoformans B3501
[2] = system: Escherichia coli O157:H7 ATCC 43895
[3] = system: Staphylococcus aureus B38302
[4] = system: Pseudomonas aeruginosa CMCCB 1010
[5] = system: Staphylococcus aureus ATCC 25923
[6] = system: Enterobacter cloacae ATCC 13047
[7] = system: Klebsiella pneumoniae ATCC 700603
Escherichia coli 117 = system: Escherichia coli 117
Klebsiella pneumoniae = system: Klebsiella pneumoniae
[8] = system: Enterococcus faecalis ATCC 29212
Staphylococcus aureus 37 = system: Staphylococcus aureus 37
Staphylococcus aureus 10 = system: Staphylococcus aureus 10
Shigella dysenteriae = system: Shigella dysenteriae
[9] = system: Pseudomonas aeruginosa ATCC 27853
[10] = system: Candida albicans ATCC 90028
Pseudomonas aeruginosa = system: Pseudomonas aeruginosa
[11] = system: Candida parapsilosis ATCC 22019
[12] = system: Candida albicans ATCC 2002
[13] = system: Escherichia coli ATCC 25922
Escherichia coli 37 = system: Escherichia coli 37
Escherichia coli 4530 = system: Escherichia coli 4530
[14] = system: Klebsiella pneumoniae ST258
[15] = system: Streptococcus pneumoniae ATCC 49619
[16] = system: Klebsiella pneumoniae 913
Acinetobacter baumannii = system: Acinetobacter baumannii
Salmonella typhimurium = system: Salmonella typhimurium
[17] = system: Enterobacter cloacae 2524
[18] = system: Pseudomonas aeruginosa 5106
Escherichia coli 5580 = system: Escherichia coli 5580
Escherichia coli 170 = system: Escherichia coli 170
[19] = system: Pseudomonas aeruginosa 4677
[20] = system: Pseudomonas aeruginosa 3599
[21] = system: Staphylococcus aureus NBRC 12732
[22] = system: Bacillus subtilis NBRC 3513
[23] = system: Staphylococcus epidermidis NBRC 12933
[24] = system: Bacillus megaterium ATCC 19213
Escherichia coli SBS 363 = system: Escherichia coli SBS 363
[25] = system: Aspergillus fumigatus IOC 4526
Candida krusei IOC 4559 = system: Candida krusei IOC 4559
[26] = system: Trichophyton rubrum IOC 4527
[27] = system: Candida glabrata IOC 4565
[28] = system: Cryptococcus neoformans ATCC 90112
[29] = system: Candida tropicalis IOC 4560
[30] = system: Candida albicans IOC 4558
[31] = system: Candida parapsilosis IOC 4564
[32] = system: Staphylococcus aureus ATCC 29213
[33] = system: Trichosporon sp. IOC 4569
[34] = system: Candida albicans ATCC 36802
[35] = system: Cryptococcus neoformans IOC 4528
[36] = system: Bacillus subtilis KCTC 1918
[37] = system: Pseudomonas aeruginosa KCTC 1637
[38] = system: Escherichia coli KCTC 1682
[39] = system: Bacillus megaterium KCTC 1096
[40] = system: Staphylococcus aureus KCTC 1621
Proteus vulgaris = system: Proteus vulgaris

Compound `CC(C)C[C@H](NC(=O)[C@H](C)N)C(=O)N[C@@H](Cc1c[nH]c2ccccc12)C(=O)N[C@@H](CCCCN)C(=O)N[C@H](C(=O)N[C@@H](CC(C)C)C(=O)N[C@@H](CC(C)C)C(=O)N[C@@H](CCCCN)C(=O)N[C@@H](CCCCN)C(=O)N[C@H](C(N)=O)C(C)C)[C@@H](C)O` [ALWKTLLKKV] has an MIC (Escherichia coli U16318) of at least 50 µM, an MIC [1] of 30 µM (≈ 36 µg/mL) and an MIC [2] of at least 32 µM. For the same compound, the MIC [3] was at least 50 µM.
With `CC[C@H](C)[C@H](NC(=O)[C@@H](NC(=O)[C@@H]1CCCN1C(=O)[C@H](CC(C)C)NC(=O)[C@@H](N)Cc1ccccc1)[C@@H](C)CC)C(=O)NCC(=O)N[C@@H](CCCCN)C(=O)N[C@@H](CC(C)C)C(=O)N[C@@H](CC(C)C)C(=O)N[C@@H](CO)C(=O)NCC(=O)O` [FLPIIGKLLSG] the MIC [4] was 17.3 µM (≈ 20 µg/mL), the MIC [5] was 2.16 µM (≈ 2.5 µg/mL) and the MIC [6] was 2.16 µM (≈ 2.5 µg/mL). For the same compound, the MIC [7] was 8.64 µM (≈ 10 µg/mL), the MIC (Escherichia coli 117) was 4.32 µM (≈ 5 µg/mL) and the MIC (Klebsiella pneumoniae) was 69.1 µM (≈ 80 µg/mL). It also gave an MIC [8] of 17.3 µM (≈ 20 µg/mL), an MIC (Staphylococcus aureus 37) of 4.32 µM (≈ 5 µg/mL) and an MIC (Staphylococcus aureus 10) of 8.64 µM (≈ 10 µg/mL). It also gave an MIC (Shigella dysenteriae) of 4.32 µM (≈ 5 µg/mL), an MIC [9] of 34.6 µM (≈ 40 µg/mL) and an MIC [10] of 17.3 µM (≈ 20 µg/mL). The MIC (Pseudomonas aeruginosa) was 8.64 µM (≈ 10 µg/mL), the MIC [11] was 4.32 µM (≈ 5 µg/mL) and the MIC [12] was 8.64 µM (≈ 10 µg/mL). It also gave an MIC [13] of 4.32 µM (≈ 5 µg/mL) and an MIC (Escherichia coli 37) of 17.3 µM (≈ 20 µg/mL).
Compound `CC[C@H](C)[C@H](NC(=O)CN)C(=O)N[C@@H](CC(C)C)C(=O)N[C@@H](CCCCN)C(=O)N[C@H](C(=O)N[C@H](C(=O)N[C@@H](CCCCN)C(=O)N[C@@H](CO)C(=O)N[C@H](C(=O)N[C@@H](C)C(=O)N[C@@H](CO)C(=O)N[C@@H](CCCCN)C(=O)N[C@H](C(=O)N[C@@H](C)C(=O)N[C@@H](CC(N)=O)C(=O)N[C@H](C(=O)N[C@H](C(=O)N[C@@H](CCC(N)=O)C(=O)N[C@@H](CCCCN)C(=O)N[C@@H](CC(C)C)C(=O)N[C@@H](CCCCN)C(=O)N[C@@H](CCCN=C(N)N)C(=O)N[C@@H](CCCCN)C(=O)N[C@@H](C)C(=O)N[C@@H](CCCCN)C(=O)N[C@@H](CC(N)=O)C(=O)N[C@@H](C)C(=O)N[C@H](C(=O)O)C(C)C)C(C)C)[C@@H](C)O)C(C)C)[C@@H](C)CC)[C@@H](C)CC)[C@@H](C)O` [GILKTIKSIASKVANTVQKLKRKAKNAV] has an MIC (Escherichia coli 4530) of 3.1 µM (≈ 9.33 µg/mL), an MIC [5] of over 16.6 µM and an MIC [14] of 16.6 µM (≈ 50 µg/mL). The MIC [15] was at least 50 µM, the MIC [16] was 3.1 µM (≈ 9.33 µg/mL) and the MIC (Acinetobacter baumannii) was 3.1 µM (≈ 9.33 µg/mL). For the same compound, the MIC [9] was 8.31 µM (≈ 25 µg/mL), the MIC (Salmonella typhimurium) was 2.23 µM (≈ 6.7 µg/mL) and the MIC [17] was 3.1 µM (≈ 9.33 µg/mL). It also gave an MIC [18] of 12 µM (≈ 36.1 µg/mL), an MIC (Escherichia coli 5580) of 1.6 µM (≈ 4.81 µg/mL) and an MIC [13] of 1.6 µM (≈ 4.81 µg/mL). For the same compound, the MIC (Escherichia coli 170) was 0.8 µM (≈ 2.41 µg/mL), the MIC [19] was 6.2 µM (≈ 18.7 µg/mL) and the MIC [20] was at least 50 µM.
`CC(C)C[C@H](NC(=O)[C@@H](N)CCCCN)C(=O)NCC(=O)N[C@@H](Cc1cnc[nH]1)C(=O)N[C@@H](Cc1cnc[nH]1)C(=O)NCC(=O)N[C@@H](CCCN=C(N)N)C(=O)N[C@@H](C)C(=O)N1CCC[C@H]1C(=O)N1CCC[C@H]1C(=O)O` [KLGHHGRAPP] was tested, and the MIC [21] was at least 128 µM, the MIC [22] was at least 128 µM and the MIC [23] was at least 128 µM. For the same compound, the MIC [24] was at least 128 µM.
Compound `CC[C@H](C)[C@H](NC(=O)[C@H](CCCCN)NC(=O)[C@H](CCC(=O)O)NC(=O)[C@H](CCCCN)NC(=O)[C@@H]1CCCN1C(=O)[C@H](Cc1ccccc1)NC(=O)[C@H](CO)NC(=O)[C@H](Cc1cnc[nH]1)NC(=O)CNC(=O)CNC(=O)[C@H](CCCCN)NC(=O)[C@H](CCCCN)NC(=O)[C@H](Cc1cnc[nH]1)NC(=O)[C@H](CO)NC(=O)[C@H](CCC(N)=O)NC(=O)[C@@H](N)CCCCN)C(=O)N[C@@H](CO)C(=O)O` [KQSHKKGGHSFPKEKIS] has an MIC (Escherichia coli SBS 363) of at least 41.6 µM, an MIC [25] of at least 52 µM and an MIC (Candida krusei IOC 4559) of 29.4 µM (≈ 56.6 µg/mL). It also gave an MIC [26] of at least 52 µM, an MIC [27] of at least 41.6 µM and an MIC [9] of over 41.6 µM. It also gave an MIC [28] of 4.41 µM (≈ 8.49 µg/mL), an MIC [29] of at least 41.6 µM and an MIC [30] of at least 41.6 µM. For the same compound, the MIC [31] was at least 41.6 µM, the MIC [32] was over 41.6 µM and the MIC [33] was at least 41.6 µM. The MIC [34] was at least 52 µM and the MIC [35] was 4.41 µM (≈ 8.49 µg/mL).
Compound `CC[C@H](C)[C@H](NC(=O)[C@H](CCCCN)NC(=O)[C@H](CCCCN)NC(=O)[C@H](Cc1ccccc1)NC(=O)[C@H](CC(C)C)NC(=O)[C@H](CCCCN)NC(=O)[C@H](Cc1c[nH]c2ccccc12)NC(=O)[C@@H](N)CCCCN)C(=O)N1CCC[C@H]1C(=O)N[C@@H](CC(C)C)C(=O)N[C@@H](C)C(=O)N[C@@H](CCCCN)C(=O)N[C@@H](CCCCN)C(=O)N[C@@H](Cc1ccccc1)C(N)=O` [KWKLFKKIPLAKKF] has an MIC [36] of 1.56 µM (≈ 2.77 µg/mL), an MIC [37] of 12.5 µM (≈ 22.2 µg/mL) and an MIC [38] of 8.84 µM (≈ 15.7 µg/mL). For the same compound, the MIC [39] was 3.12 µM (≈ 5.54 µg/mL), the MIC [40] was 6.25 µM (≈ 11.1 µg/mL) and the MIC (Proteus vulgaris) was 3.12 µM (≈ 5.54 µg/mL).
